One block for each compound: values may come before it.
Tested on: K86415-001-R-J1-PDC complex spheroids, viability
Assay: Anticancer human tumor K86415-001-R-J1-PDC patient-derived lung adenocarcinoma cell line growth inhibition [RAS]
Conditions: for IC50: curve of first compound; for viability, T/C: stronger effect = lower value
Procedure, shortened: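 Tumour cells grown as complex spheroids with HUVEC endothelial cells and mesenchymal stem cells, treated with RAS pathway inhibitor combinations. Each agent spans half-log steps from near clinical Cmax, or 10 microM where Cmax is unknown.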
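Further: spheroids exposed to agents for seven days before readout.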

IC50 (second compound 0.000949 µM): < 3.16 nM
IC50 (second compound 0.003 µM): < 3.16 nM
IC50 (second compound 0.00949 µM): < 3.16 nM
IC50 (second compound 0.03 µM): < 3.16 nM
IC50 (second compound 0.0949 µM): < 3.16 nM
IC50 (second compound 0.3 µM): < 3.16 nM
SMILES: C=CC(=O)N1CCN(c2nc(OCC3CCCN3C)nc3c(F)c(-c4nc(N)cc(C)c4C(F)(F)F)c(Cl)cc23)C(C)C1 (centres undefined) + CCn1c(-c2cc(N3CCN(C)CC3)cnc2C(C)OC)c2c3cc(ccc31)-c1csc(n1)CC(NC(=O)C1CC1C)C(=O)N1CCCC(N1)C(=O)OCC(C)(C)C2
viability, T/C (second compound 0.000949 µM, first compound 0.00316 µM): 14%
viability, T/C (second compound 0.000949 µM, first compound 0.01 µM): 11.3%
viability, T/C (second compound 0.000949 µM, first compound 0.0316 µM): 7.59%
viability, T/C (second compound 0.000949 µM, first compound 0.1 µM): 8%
viability, T/C (second compound 0.000949 µM, first compound 0.316 µM): 8.62%
viability, T/C (second compound 0.000949 µM, first compound 1 µM): 8.31%
viability, T/C (second compound 0.003 µM, first compound 0.00316 µM): 9.34%
viability, T/C (second compound 0.003 µM, first compound 0.01 µM): 6.02%
viability, T/C (second compound 0.003 µM, first compound 0.0316 µM): 5.36%
viability, T/C (second compound 0.003 µM, first compound 0.1 µM): 5.95%
viability, T/C (second compound 0.003 µM, first compound 0.316 µM): 6.92%
viability, T/C (second compound 0.003 µM, first compound 1 µM): 5.35%
viability, T/C (second compound 0.00949 µM, first compound 0.00316 µM): 4.68%
viability, T/C (second compound 0.00949 µM, first compound 0.01 µM): 4.68%
viability, T/C (second compound 0.00949 µM, first compound 0.0316 µM): 4.36%
viability, T/C (second compound 0.00949 µM, first compound 0.1 µM): 4.25%
viability, T/C (second compound 0.00949 µM, first compound 0.316 µM): 4.08%
viability, T/C (second compound 0.00949 µM, first compound 1 µM): 3.96%
viability, T/C (second compound 0.03 µM, first compound 0.00316 µM): 3.4%
viability, T/C (second compound 0.03 µM, first compound 0.01 µM): 3.36%
viability, T/C (second compound 0.03 µM, first compound 0.0316 µM): 2.8%
viability, T/C (second compound 0.03 µM, first compound 0.1 µM): 2.79%
viability, T/C (second compound 0.03 µM, first compound 0.316 µM): 3.36%
viability, T/C (second compound 0.03 µM, first compound 1 µM): 3.36%
viability, T/C (second compound 0.0949 µM, first compound 0.00316 µM): 2.57%
viability, T/C (second compound 0.0949 µM, first compound 0.01 µM): 2.3%
viability, T/C (second compound 0.0949 µM, first compound 0.0316 µM): 3.16%
viability, T/C (second compound 0.0949 µM, first compound 0.1 µM): 2.37%
viability, T/C (second compound 0.0949 µM, first compound 0.316 µM): 2.22%
viability, T/C (second compound 0.0949 µM, first compound 1 µM): 3.4%
viability, T/C (second compound 0.3 µM, first compound 0.00316 µM): 2.23%
viability, T/C (second compound 0.3 µM, first compound 0.01 µM): 2.68%
viability, T/C (second compound 0.3 µM, first compound 0.0316 µM): 2.5%
viability, T/C (second compound 0.3 µM, first compound 0.1 µM): 2.49%
viability, T/C (second compound 0.3 µM, first compound 0.316 µM): 3.18%
viability, T/C (second compound 0.3 µM, first compound 1 µM): 2.66%

IC50 (second compound 0.000949 µM): 1.19 nM
IC50 (second compound 0.003 µM): < 0.949 nM
IC50 (second compound 0.00949 µM): < 0.949 nM
IC50 (second compound 0.03 µM): < 0.949 nM
IC50 (second compound 0.0949 µM): < 0.949 nM
IC50 (second compound 0.3 µM): < 0.949 nM
SMILES: CC1(C)CCC(Nc2ncc(C(F)(F)F)c(-c3c[nH]c4c(P(C)(C)=O)c(C#N)ccc34)n2)CN1 (centres undefined) + CCn1c(-c2cc(N3CCN(C)CC3)cnc2C(C)OC)c2c3cc(ccc31)-c1csc(n1)CC(NC(=O)C1CC1C)C(=O)N1CCCC(N1)C(=O)OCC(C)(C)C2
viability, T/C (second compound 0.000949 µM, first compound 0.000949 µM): 57.1%
viability, T/C (second compound 0.000949 µM, first compound 0.003 µM): 45.9%
viability, T/C (second compound 0.000949 µM, first compound 0.00949 µM): 37.9%
viability, T/C (second compound 0.000949 µM, first compound 0.03 µM): 39.5%
viability, T/C (second compound 0.000949 µM, first compound 0.0949 µM): 42.2%
viability, T/C (second compound 0.000949 µM, first compound 0.3 µM): 39.5%
viability, T/C (second compound 0.003 µM, first compound 0.000949 µM): 24.9%
viability, T/C (second compound 0.003 µM, first compound 0.003 µM): 18.3%
viability, T/C (second compound 0.003 µM, first compound 0.00949 µM): 20.9%
viability, T/C (second compound 0.003 µM, first compound 0.03 µM): 20.8%
viability, T/C (second compound 0.003 µM, first compound 0.0949 µM): 24.6%
viability, T/C (second compound 0.003 µM, first compound 0.3 µM): 23.6%
viability, T/C (second compound 0.00949 µM, first compound 0.000949 µM): 10.8%
viability, T/C (second compound 0.00949 µM, first compound 0.003 µM): 10.4%
viability, T/C (second compound 0.00949 µM, first compound 0.00949 µM): 11.1%
viability, T/C (second compound 0.00949 µM, first compound 0.03 µM): 13.3%
viability, T/C (second compound 0.00949 µM, first compound 0.0949 µM): 12.4%
viability, T/C (second compound 0.00949 µM, first compound 0.3 µM): 14.3%
viability, T/C (second compound 0.03 µM, first compound 0.000949 µM): 6.32%
viability, T/C (second compound 0.03 µM, first compound 0.003 µM): 7.15%
viability, T/C (second compound 0.03 µM, first compound 0.00949 µM): 6.95%
viability, T/C (second compound 0.03 µM, first compound 0.03 µM): 7.05%
viability, T/C (second compound 0.03 µM, first compound 0.0949 µM): 6.99%
viability, T/C (second compound 0.03 µM, first compound 0.3 µM): 8.91%
viability, T/C (second compound 0.0949 µM, first compound 0.000949 µM): 5.16%
viability, T/C (second compound 0.0949 µM, first compound 0.003 µM): 5.23%
viability, T/C (second compound 0.0949 µM, first compound 0.00949 µM): 6.96%
viability, T/C (second compound 0.0949 µM, first compound 0.03 µM): 5.02%
viability, T/C (second compound 0.0949 µM, first compound 0.0949 µM): 6.21%
viability, T/C (second compound 0.0949 µM, first compound 0.3 µM): 7.98%
viability, T/C (second compound 0.3 µM, first compound 0.000949 µM): 3.6%
viability, T/C (second compound 0.3 µM, first compound 0.003 µM): 4.59%
viability, T/C (second compound 0.3 µM, first compound 0.00949 µM): 5.58%
viability, T/C (second compound 0.3 µM, first compound 0.03 µM): 6.23%
viability, T/C (second compound 0.3 µM, first compound 0.0949 µM): 5.28%
viability, T/C (second compound 0.3 µM, first compound 0.3 µM): 6.87%
